Measured values taken from patent US20100298141A1, “SUBSTITUTED PYRIDINE N-OXIDE HERBICIDES” (E. I. DU PONT DE NEMOURS AND COMPANY, priority 2007, published 2010).

How the values were obtained:
pigweed = experiment: Test C pre-/postemergence test; format: in vivo, Amaranthus retroflexus
Outline: (§1)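 Compounds in a non-phytotoxic solvent with surfactant applied preemergence to seeded pots and, at the same time, postemergence to plants 2–18 cm tall (1- to 4-leaf stage). Paddy tests: pots flooded to 3 cm, compound applied into the water, depth held throughout.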

kochia = experiment: Test C pre-/postemergence test; format: in vivo, Kochia scoparia
Outline: as §1

wild oat = experiment: Test C pre-/postemergence test; format: in vivo, Avena fatua
Outline: as §1

redroot pigweed = experiment: Test A pre-/postemergence greenhouse test; format: in vivo, Amaranthus retroflexus; details: for Pigweed plant response rating: 0 to 100 scale; for Plant response rating, Pigweed: 0 to 100 scale where 0 is no effect and 100 is complete control
Outline: (§2)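 Visual injury ratings, made relative to untreated controls roughly ten days after treatment, cover both preemergence and postemergence application. Compounds in a surfactant-containing non-phytotoxic solvent were sprayed onto the soil surface after sowing and, simultaneously, onto young plants at the one- to two-leaf stage.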

[1] = tested on: common (oilseed) sunflower; experiment: Test C pre-/postemergence test; format: in vivo, Helianthus annuus
Outline: as §1

Surinam grass = experiment: Test C pre-/postemergence test; format: in vivo, Brachiaria decumbens
Outline: as §1

wheat = experiment: Test C pre-/postemergence test; format: in vivo, Triticum aestivum
Outline: as §1

rice = experiment: Test C flooded paddy test; format: in vivo, Oryza sativa; details: Flood
Outline: (§3)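 Ratings were visual and made relative to untreated controls after 13 to 15 greenhouse days.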

bermudagrass = experiment: Test C pre-/postemergence test; format: in vivo, Cynodon dactylon
Outline: as §1

corn = experiment: Test A pre-/postemergence greenhouse test; format: in vivo, Zea mays; details: for Corn plant response rating: 0 to 100 scale; for Plant response rating, Corn: 0 to 100 scale where 0 is no effect and 100 is complete control
Outline: as §2

catchweed bedstraw = experiment: Test C pre-/postemergence test; format: in vivo, Galium aparine
Outline: as §1

barnyardgrass = experiment: Test C flooded paddy test; format: in vivo, Echinochloa crus-galli; details: Flood
Outline: as §3

crabgrass = experiment: Test C pre-/postemergence test; format: in vivo, Digitaria sanguinalis
Outline: as §1

velvetleaf = experiment: Test C pre-/postemergence test; format: in vivo, Abutilon theophrasti
Outline: as §1

eastern black nightshade = experiment: Test C pre-/postemergence test; format: in vivo, Solanum ptycanthum
Outline: as §1

duck salad = experiment: Test C flooded paddy test; format: in vivo, Heteranthera limosa; details: Flood
Outline: as §3

blackgrass = experiment: Test C pre-/postemergence test; format: in vivo, Alopecurus myosuroides
Outline: as §1

[2] = 31 g ai/ha, Preemergence, scale 0 to 100
[3] = 62 g ai/ha, preemergence, scale 0 (no effect) to 100 (complete control)
[4] = preemergence, 125 g ai/ha, scale 0 (no effect) to 100 (complete control)
[5] = Postemergence, 125 g ai/ha, 0 is no effect, 100 is complete control
[6] = Postemergence, 500 g ai/ha, 0 is no effect, 100 is complete control
[7] = Preemergence, 125 g ai/ha, 0 no effect, 100 complete control
[8] = 31 g ai/ha, scale 0 to 100 (0 no effect, 100 complete control)
[9] = 62 g ai/ha, scale 0 to 100, 0 no effect, 100 complete control, 13 to 15 days
[10] = 125 g ai/ha, scale 0 to 100, 0 no effect, 100 complete control, 13 to 15 days
[11] = 250 g ai/ha, scale 0 to 100 (0 no effect, 100 complete control)
[12] = 62 g ai/ha, Preemergence, scale 0 to 100
[13] = 125 g ai/ha, preemergence, scale 0 (no effect) to 100 (complete control)
[14] = Preemergence, 31 g ai/ha, scale 0 to 100 (0 no effect, 100 complete control)
[15] = preemergence, 250 g ai/ha, scale 0 (no effect) to 100 (complete control)
[16] = 250 g ai/ha, scale 0 to 100, 0 no effect, 100 complete control, 13 to 15 days

Cn1nc(C(F)(F)F)c(C[S+]([O-])c2ccc(Br)c[n+]2[O-])c1OC(F)F (racemic) [Compound 16]
85: Plant response rating (0 to 100), Sunflower ([1]; Preemergence, 250 g ai/ha)
55: Surinam Grass plant response rating (Surinam grass; [3])
60: Wheat plant response rating (wheat; [4]) | Corn plant response rating (corn; [6]) | Plant response rating, Corn (corn; Preemergence, 500 g ai/ha)
80: Plant response rating (0 to 100), Oat, Wild (wild oat; Preemergence, 250 g ai/ha) | Bermudagrass plant response rating (bermudagrass; [2]) | Crabgrass, Large plant response rating (crabgrass; [2])
90: Plant response rating (0 to 100), Wheat (wheat; Preemergence, 250 g ai/ha)
50: Sunflower plant response rating [1, 4] | Corn plant response rating (corn; [5]) | Blackgrass plant response rating (blackgrass; [3]) | Blackgrass plant response rating (blackgrass; [4])
100: Pigweed plant response rating (pigweed; [2]) | Pigweed plant response rating (pigweed; [3]) | Plant response rating (0 to 100), Pigweed (pigweed; Preemergence, 250 g ai/ha) | Pigweed plant response rating (pigweed; [4]) | Kochia plant response rating (kochia; [3]) | Plant response rating (0 to 100), Kochia (kochia; Preemergence, 250 g ai/ha) | Kochia plant response rating (kochia; [4]) | Pigweed plant response rating (redroot pigweed; [7]) | Plant response rating, Pigweed (redroot pigweed; Preemergence, 500 g ai/ha) | Plant response rating (0 to 100), Surinam Grass (Surinam grass; Preemergence, 250 g ai/ha) | Surinam Grass plant response rating (Surinam grass; [4]) | Plant response rating (0 to 100), Bermudagrass (bermudagrass; Preemergence, 250 g ai/ha) | Bermudagrass plant response rating (bermudagrass; [4]) | Galium plant response rating (catchweed bedstraw; [3]) | Plant response rating (0 to 100), Galium (catchweed bedstraw; Preemergence, 250 g ai/ha) | Galium plant response rating (catchweed bedstraw; [4]) | Plant response rating (0 to 100), Crabgrass, Large (crabgrass; Preemergence, 250 g ai/ha) | Crabgrass, Large plant response rating (crabgrass; [4]) | Velvetleaf plant response rating (velvetleaf; [3]) | Plant response rating (0 to 100), Velvetleaf (velvetleaf; Preemergence, 250 g ai/ha) | Velvetleaf plant response rating (velvetleaf; [4]) | Nightshade plant response rating (eastern black nightshade; [2]) | Nightshade plant response rating (eastern black nightshade; [3]) | Plant response rating (0 to 100), Nightshade (eastern black nightshade; Preemergence, 250 g ai/ha) | Nightshade plant response rating (eastern black nightshade; [4])
98: Bermudagrass plant response rating (bermudagrass; [3]) | Crabgrass, Large plant response rating (crabgrass; [3])
70: Oat, Wild plant response rating (wild oat; [3]) | Pigweed plant response rating (redroot pigweed; [6])
20: Kochia plant response rating (kochia; [2]) | Pigweed plant response rating (redroot pigweed; [5])
75: Oat, Wild plant response rating (wild oat; [4])
30: Sunflower plant response rating [1, 3] | Wheat plant response rating (wheat; [3])
0: Oat, Wild plant response rating (wild oat; [2]) | Plant response rating, Rice (rice; [8]) | Plant response rating, Rice (rice; [9]) | Plant response rating, Rice (rice; [10]) | Plant response rating, Rice (rice; [11]) | Corn plant response rating (corn; [7]) | Galium plant response rating (catchweed bedstraw; [2]) | Plant response rating, Barnyardgrass (barnyardgrass; [8]) | Plant response rating, Barnyardgrass (barnyardgrass; [9]) | Plant response rating, Barnyardgrass (barnyardgrass; [10]) | Plant response rating, Barnyardgrass (barnyardgrass; [11]) | Plant response rating, Ducksalad (duck salad; [8]) | Plant response rating, Ducksalad (duck salad; [9]) | Plant response rating, Ducksalad (duck salad; [10]) | Plant response rating, Ducksalad (duck salad; [11]) | Blackgrass plant response rating (blackgrass; [2])

Cn1nc(C(F)(F)F)c(C(Cl)S(=O)(=O)c2cccc[n+]2[O-])c1OC(F)F (stereo not drawn) [Compound 51]
5: Plant response rating, Wheat (wheat; [14])
100: Pigweed plant response rating (pigweed; [12]) | Pigweed plant response rating (pigweed; [13]) | Pigweed plant response rating (pigweed; [15]) | Kochia plant response rating (kochia; [12]) | Kochia plant response rating (kochia; [13]) | Kochia plant response rating (kochia; [15]) | Pigweed plant response rating (redroot pigweed; [7]) | Plant response rating, Pigweed (redroot pigweed; Preemergence, 500 g ai/ha) | Surinam Grass plant response rating (Surinam grass; [15]) | Bermudagrass plant response rating (bermudagrass; 62 g ai/ha, Preemergence, scale 0 to 100 (0 no effect, 100 complete control)) | Bermudagrass plant response rating (bermudagrass; [13]) | Bermudagrass plant response rating (bermudagrass; [15]) | Crabgrass, Large plant response rating (crabgrass; [12]) | Crabgrass, Large plant response rating (crabgrass; [13]) | Crabgrass, Large plant response rating (crabgrass; [15]) | Nightshade plant response rating (eastern black nightshade; [15]) | Blackgrass plant response rating (blackgrass; [15])
65: Plant response rating, Kochia (kochia; [14]) | Plant response rating, Crabgrass, Large (crabgrass; [14])
85: Plant response rating, Pigweed (pigweed; [14]) | Galium plant response rating (catchweed bedstraw; [12]) | Nightshade plant response rating (eastern black nightshade; [13])
95: Galium plant response rating (catchweed bedstraw; [13]) | Galium plant response rating (catchweed bedstraw; [15])
90: Plant response rating, Bermudagrass (bermudagrass; [14]) | Blackgrass plant response rating (blackgrass; [12]) | Blackgrass plant response rating (blackgrass; [13])
25: Plant response rating, Rice (rice; [9])
35: Plant response rating, Ducksalad (duck salad; [9])
20: Wheat plant response rating (wheat; [13]) | Corn plant response rating (corn; [6])
50: Oat, Wild plant response rating (wild oat; [15]) | Plant response rating, Barnyardgrass (barnyardgrass; [16]) | Velvetleaf plant response rating (velvetleaf; [13])
70: Pigweed plant response rating (redroot pigweed; [6])
80: Plant response rating, Galium (catchweed bedstraw; [14]) | Velvetleaf plant response rating (velvetleaf; [15]) | Plant response rating, Ducksalad (duck salad; [16]) | Plant response rating, Blackgrass (blackgrass; [14])
10: Oat, Wild plant response rating (wild oat; [13]) | Surinam Grass plant response rating (Surinam grass; [12]) | Plant response rating, Surinam Grass (Surinam grass; [14]) | Wheat plant response rating (wheat; [12])
55: Plant response rating, Rice (rice; [16])
60: Plant response rating, Pigweed (redroot pigweed; Postemergence, 125 g ai/ha)
0: Oat, Wild plant response rating (wild oat; [12]) | Plant response rating, Oat, Wild (wild oat; [14]) | Sunflower plant response rating [1, 12] | Sunflower plant response rating [1, 13] | Plant response rating, Sunflower [1, 14] | Sunflower plant response rating [1, 15] | Plant response rating, Corn (corn; Postemergence, 125 g ai/ha) | Corn plant response rating (corn; [7]) | Plant response rating, Corn (corn; Preemergence, 500 g ai/ha) | Plant response rating, Barnyardgrass (barnyardgrass; [9]) | Velvetleaf plant response rating (velvetleaf; [12]) | Plant response rating, Velvetleaf (velvetleaf; [14]) | Plant response rating, Nightshade (eastern black nightshade; [14])
98: Surinam Grass plant response rating (Surinam grass; [13])
